The test addresses T1, YndB (Bacillus subtilis, UniProt O31806).
T1 sequence (O31806 1-144): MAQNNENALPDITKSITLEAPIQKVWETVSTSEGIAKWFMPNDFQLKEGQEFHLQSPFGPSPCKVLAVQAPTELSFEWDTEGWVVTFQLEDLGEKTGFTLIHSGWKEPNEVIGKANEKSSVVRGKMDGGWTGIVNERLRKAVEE
Nature of the test: 2D 1H-15N HSQC NMR titration, chemical shift perturbation fit. The class given is binding.
Turning to `O=C1CC(c2ccccc2)Oc2ccccc21` (stereo not shown) [flavanone], the Kd was found to be 32 ± 3 µM. `O=c1cc(-c2ccccc2)oc2ccccc12` [flavone]: the equilibrium dissociation constant (Kd) was found to be 62 ± 9 µM. As to `O=c1c(O)c(-c2ccccc2)oc2ccccc12` [flavonol], the Kd was 86 ± 16 µM. As to `O=C(/C=C/c1ccccc1)c1ccccc1` [trans-chalcone], the Kd is less than 1 µM.

The values above are taken from paper PMC2976784 (Proteins, 2010).
